Results as given in patent US20240336654A1, “ANTIMICROBIAL PEPTIDOMIMETICS” (SPEXIS AG, priority 2021, published 2024).
Where a SMILES comes first, the peptide text is derived from it. Bridges are numbered along the chain shown (N, C = ends). [ ]: non-standard residue; d: D form. The star is where a group is joined. Val(Nα-amidino) = CC(C)[C@H](NC(=N)N)C(=O)*; dDab(iPr) = CC(C)NCC[C@@H](N)C(=O)O; Dab(iPr) = CC(C)NCC[C@H](N)C(=O)O; Hyp = O=C(O)[C@@H]1C[C@@H](O)CN1; Cit = NC(=O)NCCC[C@H](N)C(=O)O; Pen = CC(C)(S)[C@H](N)C(=O)O; dDab = NCC[C@@H](N)C(=O)O; Orn = NCCC[C@H](N)C(=O)O; Dab = NCC[C@H](N)C(=O)O

Experiments:
Format in all cases: cell-based
[1] = test system: human red blood cells (hRBC); conditions: red cells of human, 1 h, 200 μg/mL
Summary of the method: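 Peptides at 200 μg/mL incubated 1 h at 37 °C with 20% (v/v) washed human RBC, shaking. Hemolysis from supernatant OD540, expressed as percent of 2.5% Triton X-100 lysis, with PBS as 0%.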

[2] = test system: Escherichia coli ATCC 25922; conditions: ATCC 25922
Summary of the method: (§1)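 The MIC is the lowest peptide concentration, in μg/mL, with no visible growth after 18-20 h incubation at 35 °C. Serial two-fold peptide dilutions in water with 0.002% P-80 final were added to bacteria in cation-adjusted MHII broth, about 5×10^5 CFU/mL, following modified CLSI microdilution.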

[3] = test system: Klebsiella pneumoniae SSI3010; conditions: SSI3010
Summary of the method: as §1

[4] = test system: Escherichia coli MCR-1 Af 45; conditions: MCR-1 Af 45
Summary of the method: as §1

SMILES | Escherichia coli ATCC 25922 MIC [2] [µg/mL] | Klebsiella pneumoniae SSI3010 MIC [3] [µg/mL] | Escherichia coli MCR-1 Af45 MIC [4] [µg/mL] | Hemolysis at 0.2 g/L [1] [%]
CC[C@H](C)[C@H](NC(=O)[C@@H]1C[C@@H](O)CN1C(=O)[C@@H](NC(=N)N)C(C)C)C(=O)N[C@@H]1C(=O)N[C@@H](Cc2ccc(O)cc2)C(=O)N[C@@H](CO)C(=O)N[C@@H](CC(N)=O)C(=O)N[C@@H](CCCNC(=N)N)C(=O)N[C@@H](CCN)C(=O)N[C@@H](CC(N)=O)C(=O)N[C@H](CCN)C(=O)N[C@@H](CCCCN)C(=O)N[C@@H](CCN)C(=O)N[C@@H](CCN)C(=O)N[C@H](C(=O)N[C@@H](Cc2ccc(O)cc2)C(=O)O)CSSC1(C)C [Example 94, Gua-Val-Hyp-Ile-Pen-Tyr-Ser-Asn-Arg-Dab-Asn-^DDab-Lys-Dab-Dab-Cys-Tyr] ({Val(Nα-amidino)}-[Hyp]I[Pen]YSNR[Dab]N[dDab]K[Dab][Dab]CY-OH; disulfide 3-14) | 0.25 | 0.25 | 0.125 | <1
CC[C@H](C)[C@H](NC(=O)[C@@H]1C[C@@H](O)CN1C(=O)[C@@H](NC(=N)N)C(C)C)C(=O)N[C@@H]1C(=O)N[C@@H](Cc2ccc(O)cc2)C(=O)N[C@@H]([C@@H](C)O)C(=O)N[C@@H](CC(N)=O)C(=O)N[C@@H](CCCNC(=N)N)C(=O)N[C@@H](CCN)C(=O)N[C@@H]([C@@H](C)O)C(=O)N[C@H](CCN)C(=O)N[C@@H](CCCNC(N)=O)C(=O)N[C@@H](CCN)C(=O)N[C@@H](CCN)C(=O)N[C@H](C(=O)N[C@@H](Cc2ccc(O)cc2)C(=O)O)CSSC1(C)C [Example 97, Gua-Val-Hyp-Ile-Pen-Tyr-Thr-Asn-Arg-Dab-Thr-^DDab-Cit-Dab-Dab-Cys-Tyr] ({Val(Nα-amidino)}-[Hyp]I[Pen]YTNR[Dab]T[dDab][Cit][Dab][Dab]CY-OH; disulfide 3-14) | 0.125 | 0.25 | 0.125 | <1
CC[C@H](C)[C@H](NC(=O)[C@@H]1C[C@@H](O)CN1C(=O)[C@@H](NC(=N)N)C(C)C)C(=O)N[C@@H]1C(=O)N[C@@H](Cc2ccc(O)cc2)C(=O)N[C@@H](CO)C(=O)N[C@@H](CC(N)=O)C(=O)N[C@@H](CCCNC(=N)N)C(=O)N[C@@H](CCN)C(=O)N[C@@H]([C@@H](C)O)C(=O)N[C@H](CCN)C(=O)N[C@@H](CO)C(=O)N[C@@H](CCN)C(=O)N[C@@H](CCN)C(=O)N[C@H](C(=O)N[C@@H](Cc2ccc(O)cc2)C(=O)O)CSSC1(C)C [Example 99, Gua-Val-Hyp-Ile-Pen-Tyr-Ser-Asn-Arg-Dab-Thr-^DDab-Ser-Dab-Dab-Cys-Tyr] ({Val(Nα-amidino)}-[Hyp]I[Pen]YSNR[Dab]T[dDab]S[Dab][Dab]CY-OH; disulfide 3-14) | 0.25 | 0.25 | 0.125 | <1
CC[C@H](C)[C@H](NC(=O)[C@@H]1C[C@@H](O)CN1C(=O)[C@@H](NC(=N)N)C(C)C)C(=O)N[C@@H]1C(=O)N[C@@H](Cc2ccc(O)cc2)C(=O)N[C@@H]([C@@H](C)O)C(=O)N[C@@H](CC(N)=O)C(=O)N[C@@H](CCCNC(=N)N)C(=O)N[C@@H](CCN)C(=O)N[C@@H]([C@@H](C)O)C(=O)N[C@H](CCN)C(=O)N[C@@H](CO)C(=O)N[C@@H](CCN)C(=O)N[C@@H](CCCN)C(=O)N[C@H](C(=O)N[C@@H](Cc2ccc(O)cc2)C(=O)O)CSSC1(C)C [Example 100, Gua-Val-Hyp-Ile-Pen-Tyr-Thr-Asn-Arg-Dab-Thr-^DDab-Ser-Dab-Orn-Cys-Tyr] ({Val(Nα-amidino)}-[Hyp]I[Pen]YTNR[Dab]T[dDab]S[Dab][Orn]CY-OH; disulfide 3-14) | 0.25 | 0.5 | 0.25 | <1

Further lines, with some results ahead:

Escherichia coli ATCC 25922 MIC [2] [µg/mL] | Klebsiella pneumoniae SSI3010 MIC [3] [µg/mL] | Escherichia coli MCR-1 Af45 MIC [4] [µg/mL] | SMILES | Hemolysis at 0.2 g/L [1] [%]
0.0625 | 0.25 | 0.0625 | CC[C@H](C)[C@H](NC(=O)[C@@H]1C[C@@H](O)CN1C(=O)[C@@H](NC(=N)N)C(C)C)C(=O)N[C@@H]1C(=O)N[C@@H](Cc2ccc(O)cc2)C(=O)N[C@@H]([C@@H](C)O)C(=O)N[C@@H](CC(N)=O)C(=O)N[C@@H](CCCNC(=N)N)C(=O)N[C@@H](CCNC(C)C)C(=O)N[C@@H]([C@@H](C)O)C(=O)N[C@H](CCN)C(=O)N[C@@H](CCCCN)C(=O)N[C@@H](CCN)C(=O)N[C@@H](CCN)C(=O)N[C@H](C(=O)N[C@@H](Cc2ccc(O)cc2)C(=O)O)CSSC1(C)C [Example 92, Gua-Val-Hyp-Ile-Pen-Tyr-Thr-Asn-Arg-Dab(iPr)-Thr-^DDab-Lys-Dab-Dab-Cys-Tyr] ({Val(Nα-amidino)}-[Hyp]I[Pen]YTNR[Dab(iPr)]T[dDab]K[Dab][Dab]CY-OH; disulfide 3-14) | <1
0.25 | 0.5 | 0.25 | CC[C@H](C)[C@H](NC(=O)[C@@H]1C[C@@H](O)CN1C(=O)[C@@H](NC(=N)N)C(C)C)C(=O)N[C@@H]1C(=O)N[C@@H](Cc2ccc(O)cc2)C(=O)N[C@@H]([C@@H](C)O)C(=O)N[C@@H](CC(N)=O)C(=O)N[C@@H](CCCNC(=N)N)C(=O)N[C@@H](CCNC(C)C)C(=O)N[C@@H]([C@@H](C)O)C(=O)N[C@H](CCN)C(=O)N[C@@H](CO)C(=O)N[C@@H](CCN)C(=O)N[C@@H](CCN)C(=O)N[C@H](C(=O)N[C@@H](Cc2ccc(O)cc2)C(=O)O)CSSC1(C)C [Example 93, Gua-Val-Hyp-Ile-Pen-Tyr-Thr-Asn-Arg-Dab(iPr)-Thr-^DDab-Ser-Dab-Dab-Cys-Tyr] ({Val(Nα-amidino)}-[Hyp]I[Pen]YTNR[Dab(iPr)]T[dDab]S[Dab][Dab]CY-OH; disulfide 3-14) | <1
0.125 | 0.25 | 0.125 | CC[C@H](C)[C@H](NC(=O)[C@@H]1C[C@@H](O)CN1C(=O)[C@@H](NC(=N)N)C(C)C)C(=O)N[C@@H]1C(=O)N[C@@H](Cc2ccc(O)cc2)C(=O)N[C@@H]([C@@H](C)O)C(=O)N[C@@H](CC(N)=O)C(=O)N[C@@H](CCCNC(=N)N)C(=O)N[C@@H](CCN)C(=O)N[C@@H]([C@@H](C)O)C(=O)N[C@H](CCNC(C)C)C(=O)N[C@@H](CCCCN)C(=O)N[C@@H](CCN)C(=O)N[C@@H](CCN)C(=O)N[C@H](C(=O)N[C@@H](Cc2ccc(O)cc2)C(=O)O)CSSC1(C)C [Example 95, Gua-Val-Hyp-Ile-Pen-Tyr-Thr-Asn-Arg-Dab-Thr-^DDab(iPr)-Lys-Dab-Dab-Cys-Tyr] ({Val(Nα-amidino)}-[Hyp]I[Pen]YTNR[Dab]T[dDab(iPr)]K[Dab][Dab]CY-OH; disulfide 3-14) | <1
0.125 | 0.25 | 0.125 | CC[C@H](C)[C@H](NC(=O)[C@@H]1C[C@@H](O)CN1C(=O)[C@@H](NC(=N)N)C(C)C)C(=O)N[C@@H]1C(=O)N[C@@H](Cc2ccc(O)cc2)C(=O)N[C@@H]([C@@H](C)O)C(=O)N[C@@H](CC(N)=O)C(=O)N[C@@H](CCCNC(=N)N)C(=O)N[C@@H](CCN)C(=O)N[C@@H]([C@@H](C)O)C(=O)N[C@H](CCNC(C)C)C(=O)N[C@@H](CO)C(=O)N[C@@H](CCN)C(=O)N[C@@H](CCN)C(=O)N[C@H](C(=O)N[C@@H](Cc2ccc(O)cc2)C(=O)O)CSSC1(C)C [Example 96, Gua-Val-Hyp-Ile-Pen-Tyr-Thr-Asn-Arg-Dab-Thr-^DDab(iPr)-Ser-Dab-Dab-Cys-Tyr] ({Val(Nα-amidino)}-[Hyp]I[Pen]YTNR[Dab]T[dDab(iPr)]S[Dab][Dab]CY-OH; disulfide 3-14) | <1
0.25 | 0.5 | 0.125 | CC[C@H](C)[C@H](NC(=O)[C@@H]1C[C@@H](O)CN1C(=O)[C@@H](NC(=N)N)C(C)C)C(=O)N[C@@H]1C(=O)N[C@@H](Cc2ccc(O)cc2)C(=O)N[C@@H]([C@@H](C)O)C(=O)N[C@@H](CC(N)=O)C(=O)N[C@@H](CCCNC(=N)N)C(=O)N[C@@H](CCN)C(=O)N[C@@H]([C@@H](C)O)C(=O)N[C@H](CCN)C(=O)N[C@@H](CCCCN)C(=O)N[C@@H](CCN)C(=O)N[C@@H](CCCNC(N)=O)C(=O)N[C@H](C(=O)N[C@@H](Cc2ccc(O)cc2)C(=O)O)CSSC1(C)C [Example 98, Gua-Val-Hyp-Ile-Pen-Tyr-Thr-Asn-Arg-Dab-Thr-^DDab-Lys-Dab-Cit-Cys-Tyr] ({Val(Nα-amidino)}-[Hyp]I[Pen]YTNR[Dab]T[dDab]K[Dab][Cit]CY-OH; disulfide 3-14) | <1
0.125 | 0.5 | 0.125 | CC[C@H](C)[C@H](NC(=O)[C@@H]1C[C@@H](O)CN1C(=O)[C@@H](NC(=N)N)C(C)C)C(=O)N[C@@H]1C(=O)N[C@@H](Cc2ccc(O)cc2)C(=O)N[C@@H](CCN)C(=O)N[C@@H](CC(N)=O)C(=O)N[C@@H](CCCNC(=N)N)C(=O)N[C@@H](CCN)C(=O)N[C@@H]([C@@H](C)O)C(=O)N[C@H](CCN)C(=O)N[C@@H](CCCCN)C(=O)N[C@@H]([C@@H](C)O)C(=O)N[C@@H](CCN)C(=O)N[C@H](C(=O)N[C@@H](Cc2ccc(O)cc2)C(=O)O)CSSC1(C)C [Example 101, Gua-Val-Hyp-Ile-Pen-Tyr-Dab-Asn-Arg-Dab-Thr-^DDab-Lys-Thr-Dab-Cys-Tyr] ({Val(Nα-amidino)}-[Hyp]I[Pen]Y[Dab]NR[Dab]T[dDab]KT[Dab]CY-OH; disulfide 3-14) | <1
